Results reported in PubChem BioAssay (NCI).
Values joined by “and” are separate entries in the source; they are usually repeats but may differ in a detail not shown here. Equal values may be shown once.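 Values below derive from 48-hour exposures of cells grown in 96-well plates, with endpoints linearly interpolated between the two concentrations bracketing the appropriate inhibition level. At the GI50, growth is halved. Definition used: TGI = concentration required for complete inhibition of growth.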

Tests used:
Test in all cases: NCI tumour cell line growth inhibition, 48 h
[1] = test system: LXFL 529 NSCLC
[2] = test system: M19-MEL melanoma
[3] = test system: KM20L2 colon
[4] = test system: DMS 273 small cell lung
[5] = test system: HOP-18 NSCLC
[6] = test system: DLD-1 colon
[7] = test system: RXF-631 renal
[8] = test system: XF 498 CNS
[9] = test system: MDA-N
[10] = test system: SN12K1 renal
[11] = test system: P388 leukemia

Row | SMILES | TGI [1] [µM] | TGI [2] [µM] | TGI [3] [µM] | TGI [4] [µM] | TGI [5] [µM] | TGI [6] | TGI [7] [µM] | TGI [8] [µM] | TGI [9] | further results
1 | Nc1ccccc1C(=O)/C=C/c1c(O)ccc2ccccc12 | > 100 | 43.4 | > 100 | > 100 | > 100 | > 100 µM | > 100 |  |  | 
2 | O=[N+]([O-])c1cccc(C2=NOC(C3CCCCC3)C2)c1 (configuration not stated) | > 100 | > 100 |  | > 100 | > 100 | > 100 µM | > 100 |  |  | 
3 | O=C(CC(=O)C1CCOC1=O)C(=O)Nc1cccc(Cl)c1 (configuration not stated) | > 100 | > 100 | > 100 | > 100 | > 100 | > 100 µM | > 100 |  |  | 
4 | COc1ccc(CC2c3c(cc(OC)c(OC)c3OC)CCN2C)cc1OC (configuration not stated) | > 100 |  | > 100 |  | > 100 | > 100 µM |  | > 100 |  | 
5 | CN(C)CCNCCN |  |  |  |  |  |  |  |  | > 100 µM | 
6 | CC1CC(O)C(=O)C(O[C@@H]2C[C@@H]3CC[C@@H]4[C@H](CC[C@]5(C)C(C6=CC(=O)OC6)CC[C@]45O)[C@@]3(C=O)C[C@H]2O)O1 (some centres not stated) |  |  |  |  |  |  |  |  | 0.199 µM | 
7 | CC(C)CCC[C@@H](C)C1CCC2[C@@H]3CC=C4C[C@@H](C(=O)NCCN(C)C)CC[C@]4(C)C3CC[C@@]21C (some centres not stated) | > 100 | 39.7 | > 100 | > 100 | 66.6 | > 100 µM |  | 48.7 |  | 
8 | CC(C(=O)c1ccc(Cl)cc1)/C(=N/NC(=O)NN)C(=O)Nc1cccc(C(F)(F)F)c1 (configuration not stated) | > 100 | > 100 | > 100 | > 100 | > 100 | > 100 µM | > 100 | > 100 |  | 
9 | COc1cccc(/C=N/[N-]C(=O)c2ccncc2)c1[O-].COc1cccc(/C=N/[N-]C(=O)c2ccncc2)c1[O-].[O]=[U](=[O])([OH2+])[OH2+] | > 100 | > 100 | > 100 | > 56.6 | 88.6 | > 100 µM |  | 37.6 |  | GI50 [1]: > 33.7 µM; GI50 [2]: 5.83 µM; GI50 [3]: 3.14 µM; GI50 [4]: 4.2 µM; GI50 [8]: 4.75 µM; GI50 [5]: 12.1 µM; GI50 [6]: 4.19 µM
10 | COC(=O)C1=COC(C)C2CN3CCc4c([nH]c5ccccc45)C3CC12 (configuration not stated) |  |  |  |  |  |  |  |  | > 100 µM | GI50 [9]: 31.6 µM and > 100 µM
11 | CC(C)(C)c1ccc2c(c1)S(=O)(=O)Nc1ccc(Cl)cc1NS(=O)(=O)c1cc(C(C)(C)C)ccc1OCCOCCOCCO2 |  | > 100 |  | > 100 | > 100 | > 100 µM |  |  |  | 
12 | CC(C)=C1CCC(CN(C)C)C1=O (configuration not stated) | 25.4 | > 100 | 27.7 |  | 36.6 | 36.8 µM | > 100 |  |  | 
13 | CCC/C=C/C=C/C1CC(O)C(O)C(=O)C1CO (configuration not stated) |  |  |  |  |  |  |  |  | > 100 µM | 
14 | Cn1c(=O)c2c(nc(C(=N)SCC(=O)O)n2C)n(C)c1=O |  |  |  |  |  |  |  |  | > 100 µM | 
15 | NC(=O)C(=O)CC(=O)c1ccccc1NC1=CC(=O)C(=O)c2ccccc21 | > 100 | 22.8 | > 100 | > 100 | > 100 | > 100 µM | > 100 | > 100 |  | 
16 | N#CC(=Nc1ccccc1N(C(=O)c1ccccc1)C(=O)c1ccccc1)c1ccccc1 | > 100 | > 100 | > 100 | > 100 | > 100 | > 100 µM |  | > 100 |  | 
17 | COC(=O)C(=O)C(C(C)=O)C(=O)NCc1ccc(OC)c(OC)c1 (configuration not stated) | > 100 | > 100 | > 100 | > 100 | > 100 | > 100 µM | > 100 | > 100 |  | 
18 | CCOP(=O)(OCC)C(C(=O)OC)C(=O)C(=O)Nc1ccc(Cl)cc1Cl (configuration not stated) | > 100 | > 100 | > 100 | > 100 | > 100 | > 100 µM |  |  |  | 
19 | c1ccc2c(c1)[nH]c1c2cc[n+]2cc3c(cc12)CCCC3 |  |  |  |  |  |  |  |  | 3.21 µM | 
20 | ClC(Cl)=C1C(=C(Cl)Cl)C(Cl)(Cl)C1(Cl)Cl | 2.47 | 9.1 | 11.3 | 9.87 | 19.4 | 3.3 µM | 13.9 |  | 2.81 µM | 
21 | Nc1nc(-c2ccc(Cl)c([N+](=O)[O-])c2)cs1 | > 100 | > 100 | > 100 | > 100 | > 100 | > 100 µM | > 100 | 86.6 |  | 
22 | O=C1NCCS(=O)(=O)N[C@@H](CC2=CC=CCC2)C(=O)N2CCCC12 (some centres not stated) | > 100 | > 100 | > 100 | > 100 | > 100 | > 100 µM | > 100 | > 100 |  | 
23 | CCNC(=O)/C(=C/c1ccc(OC)cc1)c1cc(OC)c(OC)c(OC)c1 | > 100 | > 100 | 13.5 | > 100 | > 100 | > 100 µM | > 100 | 85.3 | 4.26 µM | 
24 | O=C(N/C(=C\c1ccc([N+](=O)[O-])cc1)c1nc2ccccc2[nH]1)c1ccccc1 | > 100 | > 100 | > 100 |  | > 100 | > 100 µM | > 100 |  |  | 

Row | SMILES | TGI [1] [µM] | TGI [2] [µM] | TGI [3] [µM] | TGI [4] [µM] | TGI [5] [µM] | TGI [6] | TGI [7] [µM] | TGI [8] [µM] | TGI [9] | further results
25 | COC(=O)/C([Se]c1c(C)cc(C)cc1C)=C(/[Se]c1c(C)cc(C)cc1C)C(=O)OC | > 100 | > 100 | > 100 | > 100 | > 100 | > 100 µM | > 100 |  |  | 
26 | COc1cc2c(cc1OC)[C@H]1CN3CCC[C@H]3C=C1c1ccc(OC)c(O)c1-2 |  | < 0.0001 |  | 0.000139 | 0.000181 | 0.0109 µM and 0.0123 µM |  |  | 0.112 µM | 
27 | C=Cc1ccc(C)[n+](C[Si](C)(C)O[Si](C)(C)C[n+]2cc(C=C)ccc2C)c1 | > 100 | > 100 | > 100 | > 100 | > 100 | > 100 µM |  |  |  | 
28 | Cc1ccc(C)c(N2C/C(=N\NC(=O)CC#N)C(c3nc4ccccc4s3)C(=O)C2=O)c1 (configuration not stated) | > 100 | > 100 | > 100 | > 100 | > 100 | > 100 µM |  | > 100 |  | 
29 | CO[C@H]1Nc2c(ccc(C)c2O)C(=O)N2C=C(/C=C/C(N)=O)C[C@@H]12 |  | 0.0939 | 0.891 | 0.118 | > 100 | > 47.6 µM |  |  | 0.0283 µM | TGI [10]: 0.0473 µM; TGI [11]: 0.283 µM
30 | Cc1[nH]c2ccccc2c1C1Cc2ccccc2N1C(=O)C#Cc1ccc([N+](=O)[O-])cc1 (configuration not stated) | > 100 |  | > 100 |  | > 100 | > 100 µM |  | > 100 |  | 
31 | O=C(/C=C/c1ccccc1)c1ccccc1 |  |  |  |  |  |  |  |  | > 10 µM | 
32 | O=C(Cc1nc2c3c(ccc2[nH]c1=O)C(=O)c1ccccc1C3=O)C(=O)Nc1ccccc1[N+](=O)[O-] | 18 | 79.5 | 39.6 |  |  |  |  | 43.1 |  | 
33 | COc1c(C)n(CCO)ccc1=O | > 100 | > 100 | > 100 | > 100 |  | > 100 µM | > 100 | > 100 |  | 
34 | CN(C)C(=S)SSC(=S)N(C)C | > 100 | > 40 | > 100 | > 100 | > 100 | > 64 µM | > 100 | > 88.3 | 30.3 µM and 50.9 µM | 
35 | Cc1ccccc1C1=[N+]([O-])c2ccc(Cl)cc2C1=O | 24.3 | 21.2 | 16.9 |  | 35.4 | 19.6 µM | 16.8 | 14.3 |  | 
36 | CC1=C(C#N)C(=O)CC(c2ccc(Cl)cc2)N(C)N1 (configuration not stated) | > 100 |  |  |  | > 100 | > 100 µM |  | > 100 |  | 
37 | Cc1cccc(C2=C/C(=C(\SS/C(C(=O)c3ccc(OCC(=O)O)c(Cl)c3Cl)=C3\C=C(c4cccc(C)c4)SS3)C(=O)c3ccc(OCC(=O)O)c(Cl)c3Cl)SS2)c1 |  | > 60.1 | > 100 | 83.6 | 50.5 | > 100 µM |  | 54.6 |  | 
38 | COc1ccc(C(=O)c2cc(OC)c(OC)c(OC)c2)cc1OC |  |  |  |  |  |  |  |  | > 100 µM | 
39 | O=c1[nH]cnc(NC2C=C(CO)C(O)C2O)c1[N+](=O)[O-] (configuration not stated) | > 100 | > 100 | > 100 | > 66.1 | > 100 | > 100 µM |  | > 100 |  | 
40 | COc1cc(/C=C2\[C@H]3c4c(c(OC)c(C)c(OC)c4OC)CC(C(=O)N2Cc2ccccc2)N3C)c(OC)c(C)c1OC | 43.9 | 33.1 | 37.2 | 38.6 | 50.2 | > 100 µM |  |  |  | 
41 | COC(c1ccc(C(C)(C)C)cc1)(c1ccc(C(C)(C)C)cc1)c1ccc(C(C)(C)C)cc1 |  |  |  |  |  |  |  |  | > 100 µM | 
42 | Cc1cc2c(c(C(N)=O)c1C)-c1ccccc1C2=O | > 100 | > 100 | > 100 | > 100 | > 100 | > 100 µM | > 100 |  |  | 
43 | CC(O)CCCOC(c1ccccc1)(c1ccccc1)c1ccccc1 (configuration not stated) | 27.9 | 31 | 22.3 |  |  | 31.5 µM |  | 28.2 | 31.7 µM | 
44 | CCOC(=O)NC(=O)c1cn(C2CCCCC2)c(=O)[nH]c1=O | > 100 | > 100 | > 100 | > 100 | > 100 | > 100 µM | > 100 | > 100 |  | 
45 | CC(C)CC(C/C=C1/CC(CO)(COC(=O)C(C)(C)C)OC1=O)CC(C)C (configuration not stated) |  |  |  |  |  |  |  |  | 6.28 µM and 17.6 µM | GI50 [9]: 0.2 µM and 0.849 µM
46 | COc1ccc(C(CC(=O)c2ccc3c(c2)OCO3)c2c(O)c3ccccc3oc2=O)cc1OC (configuration not stated) |  |  |  |  |  |  |  |  | > 100 µM | 
47 | COC(=O)c1cc2c(o1)-c1nccc3c1c(nc1ccccc13)C2=O |  |  |  |  |  |  |  |  | 2.22 µM | GI50 [9]: 0.691 µM
48 | CC1=NN(C(=O)CC(=O)Nc2ccccc2F)C(=O)C1N=Nc1ccccc1[N+](=O)[O-] (configuration not stated) | > 100 | 33.6 | > 100 | > 100 |  | > 100 µM |  | > 100 |  | 
